# According to patent publication US10112941B2, “Tricyclic compounds as anticancer agents” (BRISTOL-MYERS SQUIBB COMPANY, priority 2013, dated 2018):
# Biological target: BRD4 (Homo sapiens, UniProt O60885)
# Experiment: Time Resolved Fluorescence Resonance Energy Transfer (TR-FRET) binding assay, BRD4
# Conditions: one of the FRET assays described; read-out: FRET BRD4 IC50
row,Structure (SMILES),IC50
1,"COc1ccc(S(C)(=O)=O)c2c1c1ncc(-c3c(C)nnn3C)cc1n2[C@H](c1ccccc1F)C1CCOCC1 [Example 188, 5-{5-[(S)-(2-Fluorophenyl)(oxan-4-yl)methyl]-6-methanesulfonyl-9-methoxy-5H-pyrido[3,2-b]indol-3-yl}-1,4-dimethyl-1H-1,2,3-triazole]",< 5 nM
2,"[2H]C([2H])([2H])c1nnn(C)c1-c1cnc2c3c(OC)ccc(S(C)(=O)=O)c3n([C@H](c3ccccc3F)C3CCOCC3)c2c1 [Example 189, 5-{5-[(S)-(2-Fluorophenyl)(oxan-4-yl)methyl]-6-methanesulfonyl-9-methoxy-5H-pyrido[3,2-b]indol-3-yl}-4-(^2H3)methyl-1-methyl-1H-1,2,3-triazole]",< 5 nM
3,"COc1ccc(S(C)(=O)=O)c2c1c1ncc(-c3c(C)nnn3C)cc1n2[C@H](c1ccc(F)cc1)C1CCOCC1 [Example 190, 5-{5-[(S)-(4-Fluorophenyl)(oxan-4-yl)methyl]-6-methanesulfonyl-9-methoxy-5H-pyrido[3,2-b]indol-3-yl}-1,4-dimethyl-1H-1,2,3-triazole]",< 5 nM
4,"[2H]C([2H])([2H])c1nnn(C)c1-c1cnc2c3c(OC)ccc(S(C)(=O)=O)c3n([C@H](c3ccc(F)cc3)C3CCOCC3)c2c1 [Example 191, 5-{5-[(S)-(4-Fluorophenyl)(oxan-4-yl)methyl]-6-methanesulfonyl-9-methoxy-5H-pyrido[3,2-b]indol-3-yl}-4-(^2H3)methyl-1-methyl-1H-1,2,3-triazole]",< 5 nM
5,"[2H]C([2H])([2H])c1onc(C)c1-c1cnc2c3ccc(C(C)(C)O)cc3n([C@H](c3ccccc3)C3CCOCC3)c2c1 [Example 192, 2-{3-[5-(^2H3)Methyl-3-methyl-1,2-oxazol-4-yl]-5-[(S)-oxan-4-yl(phenyl)methyl]-5H-pyrido[3,2-b]indol-7-yl}propan-2-ol]",< 5 nM
6,"[2H]C([2H])([2H])c1onc(C)c1-c1cnc2c3c(OC)ccc(S(=O)(=O)C([2H])([2H])[2H])c3n([C@H](c3ccccc3)C3CCOCC3)c2c1 [Example 193, 4-[6-(^2H3)Methanesulfonyl-9-methoxy-5-[(S)-oxan-4-yl(phenyl)methyl]-5H-pyrido[3,2-b]indol-3-yl]-5-(^2H3)methyl-3-methyl-1,2-oxazole]",< 5 nM
7,"Cc1nnn(C)c1-c1cnc2c3c(F)cc(S(C)(=O)=O)cc3n([C@H](c3ccccc3)C3CCOCC3)c2c1 [Example 194, 5-{9-Fluoro-7-methanesulfonyl-5-[(S)-oxan-4-yl(phenyl)methyl]-5H-pyrido[3,2-b]indol-3-yl}-1,4-dimethyl-1H-1,2,3-triazole]",< 5 nM
8,"[2H]C([2H])([2H])c1nnn(C)c1-c1cnc2c3c(F)cc(S(C)(=O)=O)cc3n([C@H](c3ccccc3)C3CCOCC3)c2c1 [Example 195, 5-{9-Fluoro-7-methanesulfonyl-5-[(S)-oxan-4-yl(phenyl)methyl]-5H-pyrido[3,2-b]indol-3-yl}-4-(^2H3)methyl-1-methyl-1H-1,2,3-triazole]",< 5 nM
9,"[2H]C([2H])([2H])c1nnn(C)c1-c1cnc2c3c(F)cc(S(C)(=O)=O)cc3n([C@H](c3ccccc3F)C3CCOCC3)c2c1 [Example 196, 5-{9-Fluoro-5-[(S)-(2-fluorophenyl)(oxan-4-yl)methyl]-7-methanesulfonyl-5H-pyrido[3,2-b]indol-3-yl}-4-(^2H3)methyl-1-methyl-1H-1,2,3-triazole]",< 25 nM
10,"[2H]C([2H])([2H])c1nnn(C)c1-c1cnc2c3c(OC)cc(S(C)(=O)=O)cc3n([C@H](c3ccccc3)C3CCOCC3)c2c1 [Example 197, 5-{7-Methanesulfonyl-9-methoxy-5-[(S)-oxan-4-yl(phenyl)methyl]-5H-pyrido[3,2-b]indol-3-yl}-4-(^2H3)methyl-1-methyl-1H-1,2,3-triazole]",< 5 nM
11,"[2H]C([2H])([2H])c1nnn(C)c1-c1cnc2c3c(OC)cc(S(C)(=O)=O)cc3n([C@H](c3ccccc3F)C3CCOCC3)c2c1 [Example 198, 5-{5-[(S)-(2-Fluorophenyl)(oxan-4-yl)methyl]-7-methanesulfonyl-9-methoxy-5H-pyrido[3,2-b]indol-3-yl}-4-(^2H3)methyl-1-methyl-1H-1,2,3-triazole]",< 5 nM
12,"[2H]C([2H])([2H])c1nnn(C)c1-c1cnc2c3c(F)cc(S(C)(=O)=O)cc3n([C@H](c3ccc(F)cc3)C3CCOCC3)c2c1 [Example 201, 5-{9-Fluoro-5-[(S)-(4-fluorophenyl)(oxan-4-yl)methyl]-7-methanesulfonyl-5H-pyrido[3,2-b]indol-3-yl}-4-(^2H3)methyl-1-methyl-1H-1,2,3-triazole]",< 5 nM
13,"[2H]C([2H])([2H])c1nnn(C)c1-c1cnc2c3c(OC)cc(S(C)(=O)=O)cc3n([C@H](c3ccc(F)cc3)C3CCOCC3)c2c1 [Example 202, 5-{5-[(S)-(4-Fluorophenyl)(oxan-4-yl)methyl]-7-methanesulfonyl-9-methoxy-5H-pyrido[3,2-b]indol-3-yl}-4-(^2H3)methyl-1-methyl-1H-1,2,3-triazole]",< 5 nM
14,"[2H]C([2H])([2H])c1nnn(C)c1-c1cnc2c3ccc(C(C)(C)O)cc3n(C(c3ccccc3)C3CCC(F)(F)CC3)c2c1 (centres unmarked) [Example 204, 2-{5-[(4,4-Difluorocyclohexyl)(phenyl)methyl]-3-[4-(^2H3)methyl-1-methyl-1H-1,2,3-triazol-5-yl]-5H-pyrido[3,2-b]indol-7-yl}propan-2-ol]",< 5 nM
15,"[2H]C([2H])([2H])c1nnn(C)c1-c1cnc2c3c(OC)cc(S(C)(=O)=O)cc3n(C(c3ncccc3F)C3CCOCC3)c2c1 (centres unmarked) [Example 207, 3-Fluoro-2-[{7-methanesulfonyl-9-methoxy-3-[4-(^2H3)methyl-1-methyl-1H-1,2,3-triazol-5-yl]-5H-pyrido[3,2-b]indol-5-yl}(oxan-4-yl)methyl]pyridine]",< 5 nM
16,"[2H]C([2H])([2H])c1nnn(C)c1-c1cnc2c3c(OC)cc(S(C)(=O)=O)cc3n(C(c3ncccc3F)C3CCOCC3)c2c1 (centres unmarked) [Example 208, 3-Fluoro-2-[{7-methanesulfonyl-9-methoxy-3-[4-(^2H3)methyl-1-methyl-1H-1,2,3-triazol-5-yl]-5H-pyrido[3,2-b]indol-5-yl}(oxan-4-yl)methyl]pyridine]",< 5 nM
17,"[2H]C([2H])([2H])c1nnn(C)c1-c1cnc2c3c(OCC)cc(S(C)(=O)=O)cc3n(C(c3ccccc3)C3CCC(F)(F)CC3)c2c1 [Example 209, 5-{5-[(S)-(4,4-Difluorocyclohexyl)(phenyl)methyl]-9-ethoxy-7-methanesulfonyl-5H-pyrido[3,2-b]indol-3-yl}-4-(^2H3)methyl-1-methyl-1H-1,2,3-triazole]",< 5 nM
18,"[2H]C([2H])([2H])c1nnn(C)c1-c1cnc2c3c(OCC)cc(S(C)(=O)=O)cc3n(C(c3ccccc3)C3CCC(F)(F)CC3)c2c1 [Example 210, 5-{5-[(S)-(4,4-Difluorocyclohexyl)(phenyl)methyl]-9-ethoxy-7-methanesulfonyl-5H-pyrido[3,2-b]indol-3-yl}-4-(^2H3)methyl-1-methyl-1H-1,2,3-triazole]",< 5 nM
19,"[2H]C([2H])([2H])c1nnn(C)c1-c1cnc2c3c(F)cc(S(C)(=O)=O)cc3n(C(c3ncccc3F)C3CCC(F)(F)CC3)c2c1 (centres unmarked) [Example 211, 2-[(4,4-Difluorocyclohexyl)({9-fluoro-7-methanesulfonyl-3-[4-(^2H3)methyl-1-methyl-1H-1,2,3-triazol-5-yl]-5H-pyrido[3,2-b]indol-5-yl})methyl]-3-fluoropyridine]",< 5 nM
20,"[2H]C([2H])([2H])c1nnn(C)c1-c1cnc2c3c(F)cc(S(C)(=O)=O)cc3n(C(c3ncccc3F)C3CCC(F)(F)CC3)c2c1 (centres unmarked) [Example 212, 2-[(4,4-Difluorocyclohexyl)({9-fluoro-7-methanesulfonyl-3-[4-(^2H3)methyl-1-methyl-1H-1,2,3-triazol-5-yl]-5H-pyrido[3,2-b]indol-5-yl})methyl]-3-fluoropyridine]",< 5 nM
21,"Cc1nnn(C)c1-c1cnc2c3c(NS(C)(=O)=O)ccc(S(C)(=O)=O)c3n([C@H](c3ccccc3)C3CCOCC3)c2c1 [Example 216, N-[3-(dimethyl-1H-1,2,3-triazol-5-yl)-6-methanesulfonyl-5-[(S)-oxan-4-yl(phenyl)methyl]-5H-pyrido[3,2-b]indol-9-yl]methanesulfonamide]",< 5 nM
22,Cc1nnn(C)c1-c1cnc2c3c(NS(=O)(=O)C4CC4)ccc(S(C)(=O)=O)c3n([C@H](c3ccccc3)C3CCOCC3)c2c1 [Example 218],< 5 nM
23,"[2H]C([2H])([2H])c1nnn(C)c1-c1cnc2c3c(F)ccc(S(C)(=O)=O)c3n([C@H](c3ccccc3)C3CCOCC3)c2c1 [Example 221, 5-{9-Fluoro-6-methanesulfonyl-5-[(S)-oxan-4-yl(phenyl)methyl]-5H-pyrido[3,2-b]indol-3-yl}-4-(^2H3)methyl-1-methyl-1H-1,2,3-triazole]",< 5 nM
24,"[2H]C([2H])([2H])c1nnn(C)c1-c1cnc2c3c(NS(=O)(=O)C4CC4)ccc(S(C)(=O)=O)c3n([C@H](c3ccccc3)C3CCOCC3)c2c1 [Example 222, N-{6-Methanesulfonyl-3-[4-(^2H3)methyl-1-methyl-1H-1,2,3-triazol-5-yl]-5-[(S)-oxan-4-yl(phenyl)methyl]-5H-pyrido[3,2-b]indol-9-yl}cyclopropanesulfonamide]",< 5 nM
25,"[2H]C([2H])([2H])c1nnn(C)c1-c1cnc2c3c(NCCCC(=O)O)ccc(S(C)(=O)=O)c3n([C@H](c3ccccc3)C3CCOCC3)c2c1 [Example 225, 4-({6-Methanesulfonyl-3-[4-(^2H3)methyl-1-methyl-1H-1,2,3-triazol-5-yl]-5-[(S)-oxan-4-yl(phenyl)methyl]-5H-pyrido[3,2-b]indol-9-yl}amino)butanoic acid]",< 25 nM
26,"[2H]C([2H])([2H])c1nnn(C)c1-c1cnc2c3c(NCC(C)(C)N)ccc(S(C)(=O)=O)c3n([C@H](c3ccccc3)C3CCOCC3)c2c1 [Example 226, N-(2-Amino-2-methylpropyl)-6-methanesulfonyl-3-[4-(^2H3)methyl-1-methyl-1H-1,2,3-triazol-5-yl]-5-[(S)-oxan-4-yl(phenyl)methyl]-5H-pyrido[3,2-b]indol-9-amine]",< 5 nM
